Source: patent publication US20220257774A1, “AROMATIC AMINE AR AHD BET TARGETING PROTEIN DEGRADATION CHIMERA COMPOUND AND USE” (HINOVA PHARMACEUTICALS INC., priority 2019, published 2022)
Read-outs that look alike come from different tables or passages of the source.

Test system: LNCaP/AR cells
Test: Inhibition of the proliferation of LNCap/AR cells (CCK-8)
Assay type: cell-based
Settings: read-out: LNCap/AR IC50
Description: 1. Biological Assay of the Inhibition on the Proliferation of LNCap/AR Cells
(1) Experimental materials and instruments: LNCaP/AR cell line and 22RV1 cell line (provided by Sichuan Kangcheng Biotechnology Co., Ltd.) Fetal bovine serum FBS (Gibco, Cat. No. 10099-141) 0.01M PBS (Biosharp, Cat. No. 162262) RIPM1640 medium (Hyclone, Cat. No. 308090.01) Penicillin-Streptomycin (Hyclone, Cat. No. SV30010) Cell counting kit-8 (Signalway Antibody, Cat. No. CP002) DMSO (Sigma, Cat. No. D5879) Centrifuge Tube, 15 ml (Excell Bio, Cat. No. CS015-0001) Cell Culture Dish, (Excell Bio, Cat. No. CS016-0128) 96-well cell culture plate (Corning, Cat. No. 3599) Microplate reader (Thermo Multiskan MK3 type)
(2) Experimental Methods:
a. Preparation of Buffer Cell culture medium: RIPM1640 medium, 10% FBS, 1% Pen Strep: PBS buffer: PBS powder was dissolved in 2 L of ultrapure water and sterilized. b. Experimental Procedures 1) LNCaP/AR cells were subcultured in cell culture media, and then the cells in good growth condition were seeded in a 96-well plate at 80 μL/well (1000 cells/well), and cultured overnight in a 37° C., 5% CO2 cell incubator. 2) The drug was prepared into a 10 mM stock solution with dimethyl sulfoxide (DMSO). Prior to use, the stock solution was diluted in a ratio of […] with DMSO, and then diluted at a 3-fold gradient to obtain 9 serial concentrations. Then, each concentration of compound was further diluted in a ratio of 1:200 with the culture medium (to ensure that the DMSO concentration in the culture system was 0.1%), and two wells were set for each concentration. 20 μL of the diluted compound solution was added to the well of the cell culture (with a final concentration of 10 μM, 3.3 μM, 1.1 μM . . . ), and then the plate was gently tapped to thoroughly mix. In addition, the experiment included 3 negative control wells only containing cells and 3 blank control wells only containing culture medium (6 wells were each added with DMSO diluted in a ratio of 1:200 with 20 μL of culture medium). c. Result Detection: 1) After culturing for 6 days, 10 μL of CCK-8 was added to each well, and the plate was further incubated for 1 h in a 37° C., 5% CO2 cell incubator. 2) The absorbance (OD value) was measured at 450 nm with a multifunctional microplate reader. 3) The data was analyzed by the Dose-response-inhibition equation in the software GraphPad Prism5, and the IC50 value was obtained. 2. Biological assay of the inhibition on the proliferation of other drug-resistant prostate cancer cells

[1] = 144 h, LNCaP/AR cells, 6 days culture, CCK-8

Row | Structure (SMILES) | IC50 [1] | other results
1 | Cc1ccc(-c2c(C)noc2C)cc1N(CCCCCCOCC(=O)N[C@H](C(=O)N1C[C@H](O)C[C@H]1C(=O)N[C@@H](C)c1ccc(-c2scnc2C)cc1)C(C)(C)C)c1ccc(-n2ccnc2)cc1 [Compound 6, (2S,4R)-1-((S)-2-(2-((6-((4-(1H-imidazol-1-yl)phenyl)(5-(3,5-Dimethylisoxazol-4-yl)-2-methylphenyl)amino)n-hexyl)oxy)acetylamino)-3,3-dimethylbutyryl)-4-hydroxy-N—((S)-1-(4-(4-methylthiazol-5-yl)phenyl)ethyl)pyrrolidinyl-2-formamide] | 501 to 2000 nM | –
2 | CC(=O)O[C@@H]1C[C@@H](C(=O)N[C@@H](C)c2ccc(-c3scnc3C)cc2)N(C(=O)[C@@H](NC(=O)COCCCCCN(c2ccc(-n3cnc(C)c3)cc2)c2cc(-c3c(C)noc3C)ccc2C)C(C)(C)C)C1 [Compound 96, (3R,5S)-1-((S)-2-(2-((5-((5-(3,5-dimethylisoxazol-4-yl)-2-methylphenyl)(4-(4-methyl-1H-imidazol-1-yl)phenyl)amino)pentyl)oxy)acetylamino)-3,3-dimethylbutyryl)-5-(((S)-1-(4-(4-methylthiazol-5-yl)phenyl)ethyl)aminoformyl)pyrrolidinyl-3-yl acetate] | – | IC50 (LNCaP/AR cells, 6 days culture, CCK-8): < 100 nM
3 | Cc1ccc(-c2c(C)noc2C)cc1N(CCCCOCC(=O)N[C@H](C(=O)N1C[C@H](O)C[C@H]1C(=O)N[C@@H](C)c1ccc(-c2scnc2C)cc1)C(C)(C)C)c1ccc(-n2ccnc2)cc1 [Compound 85, (2S,4R)-1-((S)-2-(2-(4-((4-(1H-imidazol-1-yl)phenyl)(5-(3,5-dimethylisoxazol-4-yl)-2-methylphenyl)amino)butoxy)acetamido)-3,3-dimethylbutyryl)-4-hydroxy-N—((S)-1-(4-(4-methylthiazol-5-yl)phenyl)ethyl)pyrrolidine-2-carboxamide] | 101 to 500 nM | –
4 | CCN(c1ccc(C#N)c(Cl)c1)c1cc(-c2c(C)nn(CCCCCOCC(=O)N[C@H](C(=O)N3C[C@H](O)C[C@H]3C(=O)N[C@@H](C)c3ccc(-c4scnc4C)cc3)C(C)(C)C)c2C)ccc1C [Compound 1] | – | IC50 (LNCaP/AR, 144 h): > 2000 nM

Now from value to compound, other results behind:

Row | IC50 [1] | Structure (SMILES) | other results
5 | 501 to 2000 nM | CC(=O)O[C@@H]1C[C@@H](C(=O)N[C@@H](C)c2ccc(-c3scnc3C)cc2)N(C(=O)[C@@H](NC(=O)CN2CCN(CCN(c3ccc(-n4ccnc4)c(Br)c3)c3cc(-c4c(C)noc4C)ccc3C)CC2)C(C)(C)C)C1 [Compound 47, (3R,5S)-1-((S)-2-(2-(4-(2-((3-bromo-4-(1H-imidazol-1-yl)phenyl)(5-(3,5-dimethylisoxazol-4-yl)-2-methylphenyl)amino)ethyl)piperazin-1-yl)acetamido)-3,3-dimethylbutanol)-5-((S)-1-(4-methylthiazol-5-yl)phenyl)ethyl)carbamoyl)pyrrolidine-3-yl acetate] | –
6 | < 100 nM | CC(=O)O[C@@H]1C[C@@H](C(=O)N[C@@H](C)c2ccc(-c3scnc3C)cc2)N(C(=O)[C@@H](NC(=O)COCCCCCN(c2ccc(-n3ccnn3)c(Br)c2)c2cc(-c3c(C)noc3C)ccc2C)C(C)(C)C)C1 [Compound 20, (3R,5S)-1-((S)-2-(2-((5-((3-bromo-4-(1H-1,2,3-triazol-1-yl)phenyl)(5-(3,5-dimethylisoxazol-4-yl)-2-methylphenyl)amino)pentyl)oxy)acetamido)-3,3-dimethylbutyryl)-5-((S)-1-(4-methylthiazol-5-yl)phenyl)ethyl)carbamoyl)pyrrolidine-3-yl acetate] | –
7 | 501 to 2000 nM | Cc1ccc(-c2c(C)noc2C)cc1N(CCCCCCCCOCC(=O)N[C@H](C(=O)N1C[C@H](O)C[C@H]1C(=O)N[C@@H](C)c1ccc(-c2scnc2C)cc1)C(C)(C)C)c1ccc(-n2ccnc2)cc1 [Compound 87, (2S,4R)-1-((S)-2-(2-((8-((4-(1H-imidazol-1-yl)phenyl)(5-(3,5-methylisoxazol-4-yl)-2-methylphenyl)amino)cetyl)oxy)acetylamino)-3,3-dimethylbutyryl)-4-hydroxy-N—((S)-1-(4-(4-methylthiazol-5-yl)phenyl)ethyl)pyrrolidinyl-2-formamide] | –
